The record followed here is patent EP0349941A2, “Morpholino derivatives of rhodomycins, process for their preparation and their use” (BEHRINGWERKE Aktiengesellschaft, priority 1988, dated 1990).

Converted amounts (≈) assume the structure as drawn. Read-outs that look alike come from different tables or passages of the source.

In test [1] the test system is HT 29. As to the kind of experiment: Proliferation test (MTT reduction), HT 29. It is filed as cell-based, menschlichen. As to conditions: HT 29 cells, 72 h incubation; for IC50: Homo sapiens, read-out: IC₅₀ MTT-ASSAY HT 29. How it is done:
(§1) L1210, A 549 oder HT 29 in exponentieller Wachstumsphase wurden in einer Zelldichte von 5 x 10³ Zellen/ml in RPMI 1640 in einer 96 Well Mikrotiterplatte für 72 h mit unterschiedlichen Konzentrationen der Testsubstanz bei 37° C, 5 % CO₂ und 95 % relativer Luftfeuchte inkubiert. Kontrollexperimente erhielten anstelle der Testsubstanz lediglich Wachstumsmedium. Für jede Testsubstanz sowie für die Kontrolle wurden 4fach Bestimmungen angesetzt. Nach 65 h Inkubation wurden 50 µl einer MTT-Lösung (2,5 mg/ml in Phosphat-gepuffertem Kochsalz) zugegeben. In Gegenwart lebender Zellen wurde MTT zu einem dunkelroten unlöslichen Formazanfarbstoff reduziert. Diese Reaktion war nach 7 h (L1210 Zellen) bzw. nach 24 h (A 549, HT 29 Zellen) beendet und das überstehende Medium wird sorgfältig abgesaugt. Der unlösliche Farbstoff wurde durch Zugabe von 100 µl DMSO aufgelöst und die Extinktion der so entstehenden Lösung anschließend für jedes Well in einem Multiscan Photometer 340 CC der Fa. Flow bei einer Wellenlänge von 492 nm vermessen.
(§2) Aus dem Verhältnis der Extinktionen behandelter und unbehandelter Zellen ergab sich eine Dosis-Wirkungskurve, aus der die Konzentration, die gerade 50 % der Zellen (IC₅₀) abtötet, abgelesen werden konnte. Für wiederholte Untersuchungen betrug der Variationskoeffizient weniger als 15 %.
Background: Tetrazolium assays rely on reduction of a dye to a coloured formazan, in cell work by metabolically active cells.

The subject of test [2] is A 549. In words: Proliferation test (MTT reduction), A 549. It is filed as cell-based, menschlichen. As to conditions: A 549 cells, 72 h incubation; for IC50: Homo sapiens, A549, read-out: IC₅₀ MTT-ASSAY A 549. How it is done:
as §1, §2

Test [3] has as its system L1210 Leukämiezellen. In words: Cytotoxicity against L1210 leukaemia cells (stem cell assay, colony formation in soft agar). The class given is cell-based, Maus. Conditions: colonies counted after 5-7 days; for IC50: Mus musculus, L1210. On the procedure:
Der Test wurde entsprechend der von Hamburger und Salmon beschriebenen Methodik mit den unten beschriebenen Modifikationen durchgeführt.
Konditioniertes Medium wurde durch McCoy 5A Medium ersetzt. Als Folge der hohen Klonierungsrate der L1210 Leukämiezellen in Soft Agar wurde die Anzahl an Tumorzellen pro Platte auf 5 x 10² reduziert.
Die Zellen wurden mit unterschiedlichen Konzentrationen der Testsubstanz für 1 h bei 37° C inkubiert. Anschlie-ßend wurden die Zellen zweimal mit McCoy 5A Medium gewaschen und anschließend in einem Zwei-Schichten-Agar System als obere Schicht entsprechend der Methode von Hamburger und Salmon ausplattiert.
Zusätzliche Parallelexperimente wurden unter Verwendung einer kontinuierlichen Inkubationszeit durchgeführt, wobei unterschiedliche Konzentrationen der Testsubstanz der oberen Agarschicht vor Ausplattieren der Zellen zugemischt wurden.
Die Platten wurden in einem Brutschrank mit 5 % CO₂, 20 % O₂ und 95 % relativer Luftfeuchte für 5-7 Tage inkubiert. Nach dieser Zeit wurden Kolonien mit einem Durchmesser von 60 µm mit Hilfe eines Invertoskopes gezählt.
Die Ergebnisse wurden angegeben als prozentualer Anteil der Kolonien in behandelten versus unbehandelten Gruppen. Der Variationskoeffizient bei wiederholten Experimenten war kleiner als 15 %.
Die an den getesteten Verbindungen erhaltenen Resultate sind in der Tabelle 1 enthalten. Aus der Dosis-Wirkungskurve wurde die IC₅₀ für die kontinuierliche und einstündige Inkubation bestimmt (Tab. 1).

The test system of test [4] is L1210. In words: Proliferation test (MTT reduction), L1210. Conditions: L1210 cells, 72 h incubation; for IC50: Mus musculus, read-out: IC₅₀ MTT-ASSAY L1210. It is filed as cell-based, Maus. How it is done:
as §1, §2

For test [5], the system named is L1210 Leukämie der Maus. In words: In vivo efficacy against L1210 leukaemia of the mouse. Conditions: L1210 tumour model in vivo. On the procedure:
Ascitesflüssigkeit wurde unter sterilen Bedingungen DBA2 Mäusen (weiblich, 18 - 20 g) 7 Tage nach Implantation entnommen. Der Ascites wurde dreimal mit PBS gewaschen, gezählt und auf eine Zellzahl von 10⁶ in 0.2 ml PBS eingestellt. 10⁶ Zellen, suspendiert in 0.2 ml PBS, wurden anschlie-ßend DBF1 Mäusen (weiblich, 18 - 20 g) intraperitoneal injiziert. 6 Tiere pro Gruppe wurden für jede Substanzkonzentration bzw. als Kontrolle eingesetzt.
Zur Ermittlung der antitumoralen Wirksamkeit wurden die Tiere am Tag 1 und 5 nach Injektion der Testsubstanz gewogen. Gewichtsverlust von mehr als 20 % am Tag 5 wurde als Indikator einer toxischen Substanzwirkung angesehen.
Am Ende des Experimentes (Tod aller Tiere oder überlebende Tiere am Tag 60) wurde die mittlere Überlebenszeit der Tiere in den jeweiligen Gruppen bestimmt, sofern am Tag 5 des Experimentes mindestens 65 % der Tiere noch gelebt hatten. Die mittlere Überlebenszeit wurde ausschließlich für im Verlaufe des Experimentes sterbende Tiere bestimmt. Langzeitüberlebende (LTS) wurden bei dieser Berechnung nicht berücksichtigt und gesondert aufgeführt.
Aus der mittleren Überlebenszeit (MSTr) der behandelten Gruppen sowie der Kontrollgruppen (MSTc) wurde die antitumorale Wirksamkeit (T/C) für die jeweilige Substanzkonzentration in Prozent der unbehandelten Kontrolle entsprechend der folgenden Formel bestimmt: [formula] […]

Setting [6] is: 1 h incubation at 37° C, read-out: IC₅₀ STEM CELL ASSAY 1 h exp. L1210.
[7] abbreviates: continuous incubation, read-out: IC₅₀ STEM CELL ASSAY cont. exp. L1210.

On to “7-0-(3′-(3˝ oder 5˝-Cyano-6˝(S)-hydroxymethyl-2˝(S)-methoxy-4˝-morpholinyl)-2′,3′,6′-tri-desoxy-alpha-L-lyxohexopyranosyl)-epsilon-isorhodomycinon [XXIII]”, for which the “IC₅₀ MTT-ASSAY HT 29” value in test [1] amounted to 0.0031 µg/mL. Besides, in test [2], the “IC₅₀ MTT-ASSAY A 549” value came to 0.0021 µg/mL. Moreover, the “IC₅₀ STEM CELL ASSAY 1 h exp. L1210” value in test [3] (1 h incubation at 37° C) was determined as 0.027 µg/mL. Also, the “IC₅₀ MTT-ASSAY L1210” value in test [4] turned out to be 0.0009 µg/mL.

`CC[C@@]1(O)C[C@H](O[C@H]2C[C@H](N3C[C@@H](CO)O[C@@H](OC)C3)[C@H](O)[C@H](C)O2)c2c(O)c3c(c(O)c2[C@H]1O)C(=O)c1cccc(O)c1C3=O` [XVII, 7-0-(3′-(6˝(S)-Hydroxymethyl-2˝(R)-methoxy-4˝-morpholinyl)-2′,3′,6′-tri-desoxy-alpha-L-lyxohexopyranosyl)-ß-rhodomycinon]: the values for the IC50 in test [3] (setting [6]) and in test [3] (setting [7]) were 1 µg/mL (≈ 1.55 µM) and 0.55 µg/mL (≈ 0.852 µM), respectively.

Regarding `CC[C@@]1(O)C[C@H](O[C@H]2C[C@H](N3C[C@@H](CO)O[C@@H](OC)C3)[C@H](O)[C@H](C)O2)c2c(O)c3c(c(O)c2[C@H]1C(=O)OC)C(=O)c1c(O)ccc(O)c1C3=O` [IX, 7-0-(3′-(6˝(S)-Hydroxymethyl-2˝(R)-methoxy-4˝-morpholinyl)-2′,3′,6′-tri-desoxy-alpha-L-lyxohexopyranosyl)-epsilon-isorhodomycinon], the IC50 in test [3] (setting [6]) turned out to be 1 µg/mL (≈ 1.42 µM); in test [3] (setting [7]), 0.12 µg/mL (≈ 0.171 µM).

On to “7-0-(3′-(3˝-oder 5˝-Cyano-6˝(S)-hydroxymethyl-2˝(S)-methoxy-4˝-morpholinyl)-2′,3′,6′-tri-desoxy-alpha-L-arabinohexopyranosyl)-epsilon-isorhodomycinon [XXIV]”, for which, in test [1], the “IC₅₀ MTT-ASSAY HT 29” value was 0.017 µg/mL. In addition, in test [2], the “IC₅₀ MTT-ASSAY A 549” value amounted to 0.011 µg/mL. For the same compound, in test [3] (1 h incubation at 37° C), the “IC₅₀ STEM CELL ASSAY 1 h exp. L1210” value worked out at 0.034 µg/mL. Moreover, the “IC₅₀ MTT-ASSAY L1210” value in test [4] was 0.0071 µg/mL.

As to `CCC1(O)CC(O[C@H]2C[C@H](N3CCOCC3)[C@H](O)[C@H](C)O2)c2c(O)c3c(c(O)c2C1C(=O)OC)C(=O)c1c(O)ccc(O)c1C3=O` (stereo partly drawn) [Verbindung 26, 7-0-(3′-(4˝-Morpholinyl)-2′,3′,6′-tridesoxy-alpha-L-lyxohexopyranosyl)-epsilon-isorhodomycinon], the “Wirkung in dem L1210 Tumormodell in vivo” value in test [5] is “nur eine marginale Wirkung”.

“7-0-(3′-(3˝- oder 5˝-Cyano-6˝(S)-hydroxymethyl-2˝(S)methoxy-4˝-morpholinyl)-2′,3′,6′-tri-desoxy-alpha-L-lyxohexopyranosyl)-ß-rhodomycinon [XXV]”: the “IC₅₀ MTT-ASSAY HT 29” value in test [1] came to 0.002 µg/mL. The “IC₅₀ MTT-ASSAY A 549” value in test [2] is 0.003 µg/mL. For the same compound, the “IC₅₀ STEM CELL ASSAY 1 h exp. L1210” value in test [3] (1 h incubation at 37° C) turned out to be 0.007 µg/mL. Also, in test [4], the “IC₅₀ MTT-ASSAY L1210” value came out at 0.0005 µg/mL.

As for `CC[C@@]1(O)C[C@H](O[C@H]2C[C@H](N3C[C@@H](CO)O[C@H](OC)C3)[C@H](O)[C@H](C)O2)c2c(O)c3c(c(O)c2[C@H]1O)C(=O)c1cccc(O)c1C3=O` [XVI, 7-0-(3′-(6˝(S)-Hydroxymethyl-2˝(S)-methoxy-4˝-morpholinyl)-2′,3′,6′-tri-desoxy-alpha-L-lyxohexopyranosyl)-ß-rhodomycinon], the IC50 turned out to be 0.11 µg/mL (≈ 0.17 µM) in test [1]; 0.046 µg/mL (≈ 0.0712 µM) in test [2]; 0.15 µg/mL (≈ 0.232 µM) in test [3] (setting [6]); 0.026 µg/mL (≈ 0.0403 µM) in test [3] (setting [7]); 0.036 µg/mL (≈ 0.0558 µM) in test [4].

Regarding `CC[C@@]1(O)C[C@H](O[C@H]2C[C@H](N3C[C@@H](CO)O[C@H](OC)C3)[C@@H](O)[C@H](C)O2)c2c(O)c3c(c(O)c2[C@H]1C(=O)OC)C(=O)c1c(O)ccc(O)c1C3=O` [XV, 7-0-(3′-(6˝(S)-Hydroxymethyl-2˝(S)-methoxy-4˝-morpholinyl)-2′,3′,6′-tri-desoxy-alpha-L-arabinohexopyranosyl)epsilon-isorhodomycinon], the IC50 in test [1] amounted to 0.03 µg/mL (≈ 0.0426 µM); in test [2], 0.038 µg/mL (≈ 0.054 µM); in test [3] (setting [6]) it was 0.32 µg/mL (≈ 0.455 µM); in test [3] (setting [7]), 0.078 µg/mL (≈ 0.111 µM); in test [4] it was 0.035 µg/mL (≈ 0.0497 µM).

Consider `CC[C@@]1(O)C[C@H](O[C@H]2C[C@H](N3C[C@@H](OC)O[C@@H](C)C3)[C@H](O)[C@H](C)O2)c2c(O)c3c(c(O)c2[C@H]1O)C(=O)c1cccc(O)c1C3=O` [XIX, 7-0-(3′-(6˝(S)-methyl-2˝(S)-methoxy-4˝-morpholinyl)-2′, 3′,6′-tridesoxy-alpha-L-lyxohexopyranosyl)-ß-rhodomycinon], for which the IC50 worked out at 0.095 µg/mL (≈ 0.151 µM) in test [3] (setting [6]) and 0.021 µg/mL (≈ 0.0334 µM) in test [3] (setting [7]).

`CC[C@@]1(O)C[C@H](O[C@H]2C[C@H](N3C[C@@H](CO)O[C@H](OC)C3)[C@H](O)[C@H](C)O2)c2c(O)c3c(c(O)c2[C@H]1C(=O)OC)C(=O)c1c(O)ccc(O)c1C3=O` [VIII, 7-0-(3′-(6˝(s)-Hydroxymethyl-2˝(s)-methoxy-4˝-morpholinyl)-2′,3′,6′-tri-desoxy-alpha-L-lyxohexopyranosyl)-epsilon-isorhodomycinon]: the IC50 in test [1] came to 0.035 µg/mL (≈ 0.0497 µM); in test [2] it was 0.038 µg/mL (≈ 0.054 µM); in test [3] (setting [6]) it was 0.95 µg/mL (≈ 1.35 µM); in test [3] (setting [7]), 0.029 µg/mL (≈ 0.0412 µM); in test [4], 0.009 µg/mL (≈ 0.0128 µM). The “Wirkung in dem L1210 Tumormodell in vivo” value in test [5] was “kurativ wirksam”.

In the case of `CC[C@@]1(O)C[C@H](O[C@H]2C[C@H](N3C[C@H]4CO[C@@H](C3)O4)[C@H](O)[C@H](C)O2)c2c(O)c3c(c(O)c2[C@H]1O)C(=O)c1cccc(O)c1C3=O` [XX, 7-0-(3′-(2˝,6˝-Epoximethano-4˝-morpholinyl)-2′,3′,6′-tridesoxy-alpha-L-lyxohexopyranosyl)-ß-rhodomycinon], the IC50 came to 0.036 µg/mL (≈ 0.0587 µM) in test [1], 0.014 µg/mL (≈ 0.0228 µM) in test [2], 0.12 µg/mL (≈ 0.196 µM) in test [3] (setting [6]) and 0.008 µg/mL (≈ 0.013 µM) in test [4].

Take `CC[C@@]1(O)C[C@H](O[C@H]2C[C@H](N3C[C@@H](CO)O[C@@H](n4cnc5c(N)ncnc54)C3)[C@H](O)[C@H](C)O2)c2c(O)c3c(c(O)c2[C@H]1C(=O)OC)C(=O)c1c(O)ccc(O)c1C3=O` [XIV]: the results for the IC50 in test [3] (setting [6]) and in test [3] (setting [7]) were 0.5 µg/mL (≈ 0.62 µM) and 1 µg/mL (≈ 1.24 µM), respectively.
